The values below come from PubChem BioAssay AID248 (DTP/NCI, 2004).

Structures are written as SMILES. Values joined by “and” are separate entries in the source; they are usually repeats but may differ in a detail not shown here. Equal values may be shown once. Toxic doses and inconclusive results are not listed.

This assay has as its system L1210 leukemia ip in BDF1 mice, survival T/C. Description: NCI In Vivo Anticancer Drug Screen. Data for tumor model L1210 Leukemia (intraperitoneal) in B6D2F1 (BDF1) mice. Conditions: endpoint: mean survival time, higher = longer survival. An outline of the steps:
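Read-out is survival time, reported as the treated-group measurement over the vehicle-control measurement.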

Setting [1] is: dose: 100.0 mg/kg/injection, schedule: Q01DX001 (ip), vehicle: saline.
Setting [2] is: dose: 200.0 mg/kg/injection, schedule: Q01DX001 (ip), vehicle: saline.
Setting [3] is: dose: 400.0 mg/kg/injection, schedule: Q01DX001 (ip), vehicle: saline.
[4] abbreviates: dose: 100.0 mg/kg/injection, schedule: Q01DX009 (ip), vehicle: Klucel (hydroxypropylcellulose) (HPC).
Setting [5] is: dose: 200.0 mg/kg/injection, schedule: Q01DX009 (ip), vehicle: Klucel (hydroxypropylcellulose) (HPC).
The mark [6] stands for this setting: dose: 400.0 mg/kg/injection, schedule: Q01DX009 (ip), vehicle: Klucel (hydroxypropylcellulose) (HPC).

In the case of `Cc1ccc2cc(O)ccc2c1`, the T/C is 91 % of control under setting [1]; 90 % of control (dose: 100.0 mg/kg/injection, schedule: Q04DX003 (ip), vehicle: acetone); 96 % of control under setting [2]; 90 % of control (dose: 200.0 mg/kg/injection, schedule: Q04DX003 (ip), vehicle: acetone); 92 % of control under setting [3].

With `CCOc1ccn(C2OC(CO)C(OC3OC(COC(C)=O)C(OC(C)=O)C(OC(C)=O)C3OC(C)=O)C(OC(C)=O)C2OC(C)=O)c(=O)n1` (centres undefined), the T/C runs as follows: (dose: 22.5 mg/kg/injection, schedule: Q01DX001 (ip), vehicle: carboxymethylcellulose (CMC)) 100 % of control; (dose: 45.0 mg/kg/injection, schedule: Q01DX001 (ip), vehicle: carboxymethylcellulose (CMC)) 103 % of control; (dose: 90.0 mg/kg/injection, schedule: Q01DX001 (ip), vehicle: carboxymethylcellulose (CMC)) 97 % of control; (dose: 180.0 mg/kg/injection, schedule: Q01DX001 (ip), vehicle: carboxymethylcellulose (CMC)) 100 % of control.

Consider `COC1OC2COCOC2C(O)C1O` (centres undefined), for which the T/C (dose: 25.0 mg/kg/injection, schedule: Q04DX002 (ip), vehicle: saline) is 93 % of control and 104 % of control; the T/C (dose: 50.0 mg/kg/injection, schedule: Q04DX002 (ip), vehicle: saline) was 108 % of control; the T/C (dose: 100.0 mg/kg/injection, schedule: Q04DX002 (ip), vehicle: saline) was 100 % of control [middle of 4 runs]; the T/C (dose: 200.0 mg/kg/injection, schedule: Q04DX002 (ip), vehicle: saline) was 106 % of control and 100 % of control; the T/C (dose: 400.0 mg/kg/injection, schedule: Q04DX002 (ip), vehicle: saline) was 103 % of control and 100 % of control.

With `O=C(COCC(=O)N/N=C/c1ccccc1Cl)N/N=C\c1ccccc1Cl`, the T/C under setting [4] was 93 % of control and the T/C under setting [5] is 95 % of control.

For `Cc1ccc(S(=O)(=O)N(CCCc2c(C)ncnc2Cl)c2ccccc2)cc1`, the T/C (dose: 50.0 mg/kg/injection, schedule: Q01DX001 (ip), vehicle: saline) is 101 % of control; the T/C under setting [1] is 92 % of control; the T/C under setting [2] is 98 % of control; the T/C under setting [3] was 95 % of control.

With `CN=C(NC)c1ccc(NC(=O)/C=C\c2ccc(C(=O)Nc3ccc(C(=NC)NC)cc3)cc2)cc1`, the T/C is 90 % of control (dose: 0.23 mg/kg/injection, schedule: Q01DX Z (ip), vehicle: saline); 114 % of control (dose: 0.47 mg/kg/injection, schedule: Q01DX Z (ip), vehicle: saline); 105 % of control (dose: 0.5 mg/kg/injection, schedule: Q01DX006 (iv), vehicle: saline); 104 % of control (dose: 0.5 mg/kg/injection, schedule: Q01DX Z (ip), vehicle: saline); 96 % of control (dose: 0.5 mg/kg/injection, schedule: Q01DX Z (sc), vehicle: saline); 98 % of control (dose: 0.5 mg/kg/injection, schedule: Q02DX004 (im), vehicle: saline). In addition, the T/C reads like this: (dose: 0.94 mg/kg/injection, schedule: Q01DX Z (ip), vehicle: saline) 120 % of control; (dose: 1.0 mg/kg/injection, schedule: Q01DX006 (iv), vehicle: saline) 107 % of control; (dose: 1.0 mg/kg/injection, schedule: Q01DX Z (ip), vehicle: saline) 118 % of control; (dose: 1.0 mg/kg/injection, schedule: Q01DX Z (sc), vehicle: saline) 94 % of control; (dose: 1.0 mg/kg/injection, schedule: Q02DX004 (im), vehicle: saline) 105 % of control; (dose: 2.0 mg/kg/injection, schedule: Q01DX006 (iv), vehicle: saline) 100 % of control. The T/C is 105 % of control (dose: 2.0 mg/kg/injection, schedule: Q01DX Z (sc), vehicle: saline); 96 % of control (dose: 2.0 mg/kg/injection, schedule: Q02DX004 (im), vehicle: saline); 248 % of control (dose: 3.75 mg/kg/injection, schedule: Q01DX Z (ip), vehicle: saline); 105 % of control (dose: 4.0 mg/kg/injection, schedule: Q01DX006 (iv), vehicle: saline); 209 % of control (dose: 4.0 mg/kg/injection, schedule: Q01DX Z (ip), vehicle: saline); 164 % of control (dose: 4.0 mg/kg/injection, schedule: Q01DX Z (sc), vehicle: saline). Further, the T/C (dose: 4.0 mg/kg/injection, schedule: Q02DX004 (im), vehicle: saline) is 107 % of control; the T/C (dose: 8.0 mg/kg/injection, schedule: Q01DX006 (iv), vehicle: saline) was 116 % of control; the T/C (dose: 8.0 mg/kg/injection, schedule: Q01DX Z (ip), vehicle: saline) is 121 % of control; the T/C (dose: 15.0 mg/kg/injection, schedule: Q01DX Z (ip), vehicle: saline) is 86 % of control; the T/C (dose: 15.0 mg/kg/injection, schedule: Q01DX Z (oral), vehicle: other) was 97 % of control; the T/C (dose: 16.0 mg/kg/injection, schedule: Q01DX004 (im), vehicle: saline) was 123 % of control. The T/C (dose: 16.0 mg/kg/injection, schedule: Q01DX006 (iv), vehicle: saline) was 107 % of control; the T/C (dose: 16.0 mg/kg/injection, schedule: Q01DX Z (ip), vehicle: saline) was 107 % of control; the T/C (dose: 16.0 mg/kg/injection, schedule: Q01DX Z (sc), vehicle: saline) is 120 % of control; the T/C (dose: 16.0 mg/kg/injection, schedule: Q02DX004 (im), vehicle: saline) is 191 % of control; the T/C (dose: 30.0 mg/kg/injection, schedule: Q01DX Z (oral), vehicle: other) was 95 % of control; the T/C (dose: 32.0 mg/kg/injection, schedule: Q01DX004 (im), vehicle: saline) was 161 % of control. The T/C is, setting by setting: (dose: 60.0 mg/kg/injection, schedule: Q01DX Z (oral), vehicle: other) 104 % of control; (dose: 62.5 mg/kg/injection, schedule: Q## X009 (oral), vehicle: saline) 93 % of control; (dose: 125.0 mg/kg/injection, schedule: Q## X010 (oral), vehicle: saline) 112 % of control; (dose: 128.0 mg/kg/injection, schedule: Q01DX004 (im), vehicle: saline) 116 % of control; (dose: 250.0 mg/kg/injection, schedule: Q## X010 (oral), vehicle: saline) 111 % of control; (dose: 500.0 mg/kg/injection, schedule: Q## X009 (oral), vehicle: saline) 102 % of control.

`Cc1ccc(C(C)C)cc1NC(=S)Nc1ccccc1`: the T/C reads like this: (dose: 100.0 mg/kg/injection, schedule: Q04DX002 (ip), vehicle: Klucel (hydroxypropylcellulose) (HPC)) 105 % of control; (dose: 200.0 mg/kg/injection, schedule: Q04DX002 (ip), vehicle: Klucel (hydroxypropylcellulose) (HPC)) 111 % of control; (dose: 400.0 mg/kg/injection, schedule: Q04DX002 (ip), vehicle: Klucel (hydroxypropylcellulose) (HPC)) 97 % of control.

As to `O=[N+]([O-])c1ccc(/C=C/c2ccccc2)cc1`, the T/C is, setting by setting: under setting [4], 97 % of control; (dose: 100.0 mg/kg/injection, schedule: Q04DX003 (ip), vehicle: Klucel (hydroxypropylcellulose) (HPC)) 109 % of control; under setting [5], 95 % of control; (dose: 200.0 mg/kg/injection, schedule: Q04DX003 (ip), vehicle: Klucel (hydroxypropylcellulose) (HPC)) 98 % of control; under setting [6], 96 % of control; (dose: 400.0 mg/kg/injection, schedule: Q04DX003 (ip), vehicle: Klucel (hydroxypropylcellulose) (HPC)) 105 % of control.

For the molecule `CCC(=O)Nc1cc(C)ccc1Cl`, the T/C was 101 % of control under setting [4], 103 % of control under setting [5] and 103 % of control under setting [6].

For `CCCCNC(=O)Nc1ccc(O)c(C(=O)O)c1`, the T/C runs as follows: (dose: 25.0 mg/kg/injection, schedule: Q01DX009 (ip), vehicle: Klucel (hydroxypropylcellulose) (HPC)) 110 % of control; (dose: 50.0 mg/kg/injection, schedule: Q01DX009 (ip), vehicle: Klucel (hydroxypropylcellulose) (HPC)) 93 % of control; under setting [4], 100 % of control.

For the molecule `CCC1(NS(=O)(=O)c2ccc(NC(C)=O)cc2)C(=O)N(C)C(=O)N(C)C1=O`, the T/C is 95 % of control under setting [1], 91 % of control under setting [2] and 91 % of control under setting [3].
